From ChEMBL document CHEMBL3885881, “DrugMatrix”

Species: Rattus norvegicus
Assay: DrugMatrix - Regimen: Daily Repeat
Type: toxicity, organism-based, Sprague-Dawley
Set-up: regimen Daily Repeat, gender Male, age 6-8 weeks
Conditions: in vivo, po, 150 mg/kg, route oral GAVAGE, dose level Low, vehicle .5 % CMC; for ABSOLUTE BASOPHIL / ABSOLUTE EOSINOPHIL / ABSOLUTE LYMPHOCYTE / ABSOLUTE MONOCYTE / ABSOLUTE SEGMENTED NEUTROPHIL / BASOPHIL / EOSINOPHIL / HEMATOCRIT / HEMOGLOBIN / LEUKOCYTE COUNT / LYMPHOCYTE / MEAN CORPUSCULAR HEMOGLOBIN / MEAN CORPUSCULAR HEMOGLOBIN CONCENTRATION / MEAN CORPUSCULAR VOLUME / MONOCYTE / NEUTROPHIL / NUCLEATED RED BLOOD CELLS / PLATELET COUNT: tissue Blood; for ALANINE AMINOTRANSFERASE / ALBUMIN / ALKALINE PHOSPHATASE / ASPARTATE AMINOTRANSFERASE / BLOOD UREA NITROGEN / CARBON DIOXIDE / CHLORIDE / CHOLESTEROL / CREATINE PHOSPHOKINASE / CREATININE / GLUCOSE / LACTATE DEHYDROGENASE / LIPASE / PHOSPHORUS / POTASSIUM / SODIUM / TOTAL BILIRUBIN / TOTAL PROTEIN / URIC ACID: tissue Plasma

CC(C)(C)NCC(O)COc1cccc2c1CC(O)C(O)C2 (centres undefined) [NADOLOL]
ABSOLUTE BASOPHIL (72 h, time 3 day): 0 CELLS/uL | ABSOLUTE EOSINOPHIL (72 h, time 3 day): 43.33 CELLS/uL | ABSOLUTE LYMPHOCYTE (72 h, time 3 day): 11948.67 CELLS/uL | ABSOLUTE MONOCYTE (72 h, time 3 day): 0 CELLS/uL | ABSOLUTE SEGMENTED NEUTROPHIL (72 h, time 3 day): 1241.33 CELLS/uL | BASOPHIL (72 h, time 3 day): 0% | EOSINOPHIL (72 h, time 3 day): 0.33% | HEMATOCRIT (72 h, time 3 day): 34.8% | HEMOGLOBIN (72 h, time 3 day): 13.13 G/DL | LEUKOCYTE COUNT (72 h, time 3 day): 13.23 x10E3/uL | LYMPHOCYTE (72 h, time 3 day): 90.33% | MEAN CORPUSCULAR HEMOGLOBIN (72 h, time 3 day): 24.5 pg | MEAN CORPUSCULAR HEMOGLOBIN CONCENTRATION (72 h, time 3 day): 37.73 G/DL | MEAN CORPUSCULAR VOLUME (72 h, time 3 day): 64.87 fL | MONOCYTE (72 h, time 3 day): 0% | NEUTROPHIL (72 h, time 3 day): 9.33% | NUCLEATED RED BLOOD CELLS (72 h, time 3 day): 0 /100WBC | PLATELET COUNT (72 h, time 3 day): 1238.33 x10E3/uL | ALANINE AMINOTRANSFERASE (72 h, time 3 day): 44 u/L | ALBUMIN (72 h, time 3 day): 4.17 G/DL | ALKALINE PHOSPHATASE (72 h, time 3 day): 391.33 u/L | ASPARTATE AMINOTRANSFERASE (72 h, time 3 day): 75.33 u/L | BLOOD UREA NITROGEN (72 h, time 3 day): 17 mg/dL | CARBON DIOXIDE (72 h, time 3 day): 24.67 mmol/L | CHLORIDE (72 h, time 3 day): 104 MEQ/L | CHOLESTEROL (72 h, time 3 day): 82.33 mg/dL | CREATINE PHOSPHOKINASE (72 h, time 3 day): 224 u/L | CREATININE (72 h, time 3 day): 0.22 mg/dL | GLUCOSE (72 h, time 3 day): 176.33 mg/dL | LACTATE DEHYDROGENASE (72 h, time 3 day): 97 u/L | LIPASE (72 h, time 3 day): 8 u/L | PHOSPHORUS (72 h, time 3 day): 14.9 mg/dL | POTASSIUM (72 h, time 3 day): 6.65 MEQ/L | SODIUM (72 h, time 3 day): 146.1 MEQ/L | TOTAL BILIRUBIN (72 h, time 3 day): 0.23 mg/dL | TOTAL PROTEIN (72 h, time 3 day): 6.1 G/DL | URIC ACID (72 h, time 3 day): 2 mg/dL | ABSOLUTE BASOPHIL (120 h, time 5 day): 0 CELLS/uL | ABSOLUTE EOSINOPHIL (120 h, time 5 day): 50.33 CELLS/uL | ABSOLUTE LYMPHOCYTE (120 h, time 5 day): 8337.33 CELLS/uL | ABSOLUTE MONOCYTE (120 h, time 5 day): 0 CELLS/uL | ABSOLUTE SEGMENTED NEUTROPHIL (120 h, time 5 day): 679 CELLS/uL | BASOPHIL (120 h, time 5 day): 0% | EOSINOPHIL (120 h, time 5 day): 0.67% | HEMATOCRIT (120 h, time 5 day): 35.83% | HEMOGLOBIN (120 h, time 5 day): 13.37 G/DL | LEUKOCYTE COUNT (120 h, time 5 day): 9.07 x10E3/uL | LYMPHOCYTE (120 h, time 5 day): 91.67% | MEAN CORPUSCULAR HEMOGLOBIN (120 h, time 5 day): 24.27 pg | MEAN CORPUSCULAR HEMOGLOBIN CONCENTRATION (120 h, time 5 day): 37.37 G/DL | MEAN CORPUSCULAR VOLUME (120 h, time 5 day): 64.93 fL | MONOCYTE (120 h, time 5 day): 0% | NEUTROPHIL (120 h, time 5 day): 7.67% | NUCLEATED RED BLOOD CELLS (120 h, time 5 day): 0 /100WBC | PLATELET COUNT (120 h, time 5 day): 1254.33 x10E3/uL | ALANINE AMINOTRANSFERASE (120 h, time 5 day): 46.33 u/L | ALBUMIN (120 h, time 5 day): 4.17 G/DL | ALKALINE PHOSPHATASE (120 h, time 5 day): 380.67 u/L | ASPARTATE AMINOTRANSFERASE (120 h, time 5 day): 77.67 u/L | BLOOD UREA NITROGEN (120 h, time 5 day): 14.67 mg/dL | CARBON DIOXIDE (120 h, time 5 day): 29.67 mmol/L | CHLORIDE (120 h, time 5 day): 101 MEQ/L | CHOLESTEROL (120 h, time 5 day): 84.67 mg/dL | CREATINE PHOSPHOKINASE (120 h, time 5 day): 179 u/L | CREATININE (120 h, time 5 day): 0.19 mg/dL | GLUCOSE (120 h, time 5 day): 140.33 mg/dL | LACTATE DEHYDROGENASE (120 h, time 5 day): 101 u/L | LIPASE (120 h, time 5 day): 8.67 u/L | PHOSPHORUS (120 h, time 5 day): 10.8 mg/dL | POTASSIUM (120 h, time 5 day): 6.14 MEQ/L | SODIUM (120 h, time 5 day): 147.83 MEQ/L | TOTAL BILIRUBIN (120 h, time 5 day): 0.27 mg/dL | TOTAL PROTEIN (120 h, time 5 day): 5.93 G/DL | URIC ACID (120 h, time 5 day): 0.8 mg/dL
